Results published in article PMC4445981, “The glutamate transport inhibitor DL-Threo-β-Benzyloxyaspartic acid (DL-TBOA) differentially affects SN38- and oxaliplatin-induced death of drug-resistant colorectal cancer cells” (BMC Cancer, 2015).

Legend:
Assay type in all cases: cell-based, human
CTR1 = CTR1 protein level by Western blotting; settings: 24 h
Protocol: Fig. 3 Effect of acute DL-TBOA and chemotherapy treatment on CTR1 protein level. Parental and drug-resistant HCT116 (a) and LoVo (b) cell lines were exposed to SN38 (0.8 μM) or oxaliplatin (20 μM), alone or in combination with 350 μM DL-TBOA as indicated for 24 h. Equal amounts of protein per lane were separated by SDS-PAGE and the protein levels of CTR1 were determined by Western blotting. Top: Representative Western blots (tubulin serves as a loading control), bottom: Densitometric quantification data summarized from 3 independent experiments per condition. Quantitative data are means with S.E.M. error bars of 3 independent experiments. *) p < 0.05, **) p < 0.01, ***) p < 0.001 compared to the control group without drug or TBOA treatment. Two-way ANOVA with Tukey post-test
Cells were grown to a confluence of 60-80 % and treated with chemotherapy, siRNA- or plasmid transfection as indicated. Cells were washed once in PBS, lysed in lysis buffer (1 % SDS, 0.1 M Tris pH 7.5, and 1 mM Na3VO4), sonicated, and protein content determined (DC assay, BioRad). Lysates were mixed 2:1with NuPage LDS sample buffer (Invitrogen). SDS-PAGE was carried out in NOVEX chambers with NuPAGE 10 % Bis-Tris gels under reducing and denaturing conditions, using BenchMark protein ladder (Invitrogen), and 15 μg protein per lane. […] Bands were scanned and quantified using UN-SCAN-IT (Silk Scientific).

[1] = system: cellular reduced glutathione (GSH); test: Cellular GSH level; settings: 24 h
Protocol: Fig. 4 Effect of glutamate transporter inhibition on cellular GSH levels. a Basal intracellular GSH levels were measured as described in Materials and Methods, and normalized to total protein in the samples. b-c Normalized basal GSH levels under control conditions, in HCT116 and LoVo parental and resistant cells after 24 h of treatment with 0.8 μM SN38 or 20 μM oxaliplatin, in absence or presence of DL-TBOA (350 μM) as shown. * p < 0.05 vs untreated control group (n = 5). One-way ANOVA followed by Dunnett post-test
Cells were seeded in 24-well plates (10^4 cells per well), treated the next day with chemotherapy and/or DL-TBOA and incubated for 24 h. Medium was removed and cells were washed twice with ice-cold PBS, which was removed and 500 μl ice-cold 1 % Sulfosalicylic acid was added per well. Cells were incubated on ice for at least 10 min. After centrifugation (1 min, 15,000 g), 10 μl lysate was used to determine total GSx content. To measure GSSG content, 130 μl sample was mixed with 55 μl 0.2 M Tris (pH 9) and 5 μl 2-Vinylpyridine. Tubes were vortexed carefully and incubated for at least 1 h at room temperature. 10 μl of this mix was mixed first with 90 μl of water in a 96-well plate and then with a reaction mix (0.1 M sodium phosphate buffer pH 7.5 containing 1 mM EDTA, 10 mM NADPH, 10 mM DTNB and 0.05 μl Glutathione reductase, 2U/μl). Measurements were taken every 30 s for 10 min in an ELISA plate reader (Thermo Scientific MultiScan FC) at 405 nm absorbance. GSH values were obtained by subtraction of GSSG values from GSx values.

p53 = p53 protein level by Western blotting; settings: 24 h; for p53 protein level: 0.8 μM SN38 or 20 μM oxaliplatin
Protocol: Fig. 5 Effects of DL-TBOA on cell death and survival parameters after chemotherapy treatment. Parental and drug-resistant HCT116 (a) and LoVo (b) cell lines were exposed to SN38 (0.8 μM) or oxaliplatin (20 μM), alone or in combination with 350 μM DL-TBOA as indicated, for 24 h. Equal amounts of protein per lane were separated by SDS-PAGE and the protein level of p53 was determined by Western blotting. Top: Representative Western blots, with p150 as loading control. Bottom: Densitometric quantifications based on 3 independent experiments per condition. Data are means with S.E.M. error bars of 3 independent experiments. *) p < 0.05, **) p < 0.01, ***) p < 0.001,****) p < 0.0001 compared to the control group without drug or TBOA treatment; Two-way ANOVA with Tukey post-test
(§1) Cells were grown to a confluence of 60-80 % and treated with chemotherapy, siRNA- or plasmid transfection as indicated. Cells were washed once in PBS, lysed in lysis buffer (1 % SDS, 0.1 M Tris pH 7.5, and 1 mM Na3VO4), sonicated, and protein content determined (DC assay, BioRad). Lysates were mixed 2:1with NuPage LDS sample buffer (Invitrogen). SDS-PAGE was carried out in NOVEX chambers with NuPAGE 10 % Bis-Tris gels under reducing and denaturing conditions, using BenchMark protein ladder (Invitrogen), and 15 μg protein per lane. Proteins were transferred to PVDF membranes, which were Ponceau S stained, blocked for 1 h at 37 °C in 5 % nonfat dry milk in TBST (0.01 M Tris/HCl, 0.15 M NaCl, 0.1 % Tween 20, pH 7.4), incubated overnight at 4 °C with primary antibodies diluted in blocking buffer, washed in TBST, incubated with secondary antibodies for 1 h, washed in TBST, and developed using BCIP/NBT (KPL). Bands were scanned and quantified using UN-SCAN-IT (Silk Scientific).

p21^WAF1/Cip (p21) = test: p21 protein level by Western blotting; settings: for p21 protein level: 24 h, 0.8 μM SN38 or 20 μM oxaliplatin
Protocol: as §1
Supplementary file 12885_2015_1405_MOESM3_ESM.tiff: Additional file 3: Figure S3. Effects of DL-TBOA on cell death and survival parameters after chemotherapy treatment of HCT116 cells. Parental and drug-resistant HCT116 cell lines seeded in 6-well dishes were exposed to SN38 (0.8 μM) or oxaliplatin (20 μM), alone or in combination with 350 μM DL-TBOA as indicated, for 24 h. Equal amounts of protein per lane were separated by SDS-PAGE and the protein levels of p21, and PARP-1 (full-length and cleaved, the latter indicated by arrowheads) were determined by Western blotting. Top: Representative Western blots, with p150 as loading control. Bottom: Densitometric quantifications based on 3 independent experiments per condition. Data are means with S.E.M. error bars of 3 independent experiments. *) p < 0.05, **) p < 0.01, ***) p < 0.001,****) p < 0.0001 compared to the control group without drug or TBOA treatment; #) p < 0.05 compared to controls without TBOA treatment. Two-way ANOVA with Tukey post-test.

| SMILES | effect on CTR1 protein level (CTR1; 350 μM DL-TBOA +/- SN38 (0.8 μM) or oxaliplatin (20 μM), HCT116 and LoVo lines) | effect on cellular GSH levels ([1]; 350 μM DL-TBOA, HCT116 and LoVo parental and resistant cells) | effect on chemotherapy-induced p53 induction (p53; 350 μM DL-TBOA concomitant to SN38 or oxaliplatin, parental and drug-resistant HCT116 and LoVo) | effect on cellular level of p21 (p21^WAF1/Cip (p21); DL-TBOA, HCT116 and LoVo cells) | effect on CTR1 protein expression (CTR1; 20 μM oxaliplatin, all cell lines except parental HCT116, HCT116-Oxa, LoVo-Oxa) | effect on cellular GSH levels ([1]; parental HCT116 cells, 0.8 μM SN38 or 20 μM oxaliplatin) | p53 protein level (p53; SN38-resistant HCT116 cells) | p53 protein level (p53; parental HCT116 cells) | p21 protein level (p21^WAF1/Cip (p21); SN38-resistant HCT116 cells) | p21 protein level (p21^WAF1/Cip (p21); parental HCT116 cells) |
| --- | --- | --- | --- | --- | --- | --- | --- | --- | --- | --- |
| N[C@H](C(=O)O)[C@H](OCc1ccccc1)C(=O)O (racemic) [TBOA, DL-Threo-β-Benzyloxyaspartic acid] | without detectable effects | no detectable effect | apparent decrease in p53 induction | did not significantly alter | – | – | – | – | – | – |
| O=C(O)C(=O)O.[NH-][C@@H]1CCCC[C@H]1[NH-].[Pt+2] [oxaliplatin] | – | – | – | – | tended to reduce CTR1 protein expression | slightly increased GSH levels | retained | markedly induced | retained | markedly induced |
